Laboratory results published in patent US5604095A, “Unsymmetrically linked bisnaphthalimides as antitumor agents” (Cancer Therapy & Research Center, priority 1994, dated 1997).
Where two headings read alike, the source gives them in different places.

How the values were obtained:
[1] = test system: solid tumor xenografts, human and murine leukemia, doxorubicin resistant cell lines, colon carcinoma cells; conditions: cited from earlier work
[2] = test system: LX-1 lung carcinoma; conditions: literature; cited from earlier work
[3] = cited from earlier work
[4] = test system: MX-1 human breast carcinoma; conditions: literature; cited from earlier work
[5] = test system: B16 melanoma; assay: In vivo tumor inhibiting activity vs. B16 melanoma in B6D2F1 mice; conditions: q.d. × 5, i.p., day 7
Protocol: B16 Melanoma: B6D2F1 mice received i.p. inocula of B16 murine melanoma brei prepared from B16 tumors growing subcutaneously in mice (day 0). On day 1, rumored mice were treated with drugs or vehicle control; the route of drug administration and schedule were selected as appropriate for the study in question. If dosing information for agents was not available, the maximum tolerated dose (MTD) was determined in initial dose finding experiments in non-rumored mice. In a typical experiment, drugs were given at their MTD and 1/2 MTD doses i.p. on a daily×5 schedule.
The mean survival times of all groups were calculated, and results were expressed as mean survival of treated mice/mean survival of control mice (T/C)×100%. A T/C value of 150 means that the mice in the treated group lived 50% longer than those of the control group; this is sometimes referred to as the increase in life space, or ILS value.
Mice that survived for 60 days were considered long term survivors, or cures, in the B16 model. The universally accepted cut-off for activity in this model, which has been used for years by the National Cancer Institute, is T/C=125. Conventional use of B16 over the years has set the following levels of activity: T/C<125, no activity; T/C=125-150, weak activity; T/C=150-200, modest activity; T/C=200-300, high activity; T/C>300, with long term survivors, excellent, curative activity (Goldin et al., 1981).
Statistics were performed on the data using primarily the log rank p-value test.

[6] = test system: DLD-2 human colon adenocarcinoma; conditions: literature; cited from earlier work
[7] = test system: B16 melanoma; conditions: Chen et al., 1993; cited from earlier work

Row | SMILES | toxicity ([1]; literature) | anti-tumor efficacy in vivo ([1]; solid tumor xenografts, leukemia, doxorubicin resistant lines, colon carcinoma) | anti-tumor efficacy in vivo against LX-1 lung carcinoma [2] | water solubility ([3]; reported) [µg/mL] | in vivo anti-tumor activity against MX-1 [4] | Wt. Ch. (Day 7) ([5]; 5 mg/kg) | Wt. Ch. (Day 7) ([5]; 10 mg/kg) [%] | in vivo anti-tumor activity against DLD-2 [6] | water solubility ([3]; Sun et al., 1993) [µg/mL] | activity against B16 melanoma [7]
1 | C[C@H](CNCCNC[C@@H](C)N1C(=O)c2cccc3cc([N+](=O)[O-])cc(c23)C1=O)N1C(=O)c2cccc3cc([N+](=O)[O-])cc(c23)C1=O [DMP840, (R,R)-2,2'[1,2-ethanediylbis[imino(1-methyl-2,1-ethanediyl)]]-bis[5-nitro-1H-benz[de]isoquinoline-1,3-(2H)-dione] dimethanesulfonate] | no irreversible toxicities | anti-tumor efficacy in vivo | anti-tumor efficacy in vivo | 3400 | anti-tumor efficacy in vivo | +4.6% | -0.33 | anti-tumor efficacy in vivo |  | 
2 | CS(=O)(=O)O.O=C1c2cccc3cc([N+](=O)[O-])cc(c23)C(=O)N1CCCCNCCCN1C(=O)c2cccc3cc([N+](=O)[O-])cc(c23)C1=O [XB596] |  |  |  |  | demonstrated in vivo anti-tumor activity |  |  | demonstrated in vivo anti-tumor activity | 45 | ineffective against B16 melanoma
